Where two headings read alike, the source gives them in different places.
System: C. elegans
[1] = Table S2, C. elegans SS assay, 110 μM, 0 h, averages of 4 data points
[2] = Table S2, C. elegans SS assay, 110 μM, 24 h, averages of 4 data points

Row | Compound | Percentage of motility inhibition 0 h [1] [%] | Percentage of motility inhibition 24 h [2] [%] | Percentage of motility inhibition 0 h (110 µM) [%] | Percentage of motility inhibition 24 h (110 µM) [%]
1 | Cc1nc(N(C)C(=O)Cc2ccc(-c3ccccn3)cc2)sc1S(N)(=O)=O [BAY 57‐1293] | 36 | 0 | – | –
2 | c1ccc2c(-c3nccs3)c[nH]c2c1 [Camalexin] | 50 | 27 | – | –
3 | CC(C)=C[C@H]1C[C@](C)(O)[C@@H]2[C@H]3CC[C@@H]4[C@@]5(C)CC[C@H](O[C@@H]6OC[C@H](O)[C@H](O[C@@H]7O[C@H](CO)[C@@H](O)[C@H](O)[C@H]7O)[C@H]6O[C@@H]6O[C@@H](CO)[C@H](O)[C@H]6O)C(C)(C)[C@@H]5CC[C@@]4(C)[C@@]34CO[C@@]2(C4)O1 [Bacopaside X] | 9 | 35 | – | –
4 | COCCNC(=O)Nc1ccc2nc(-c3cccs3)c(-c3cccs3)nc2c1 [Ac‐CoA Synthase Inhibitor1] | 16 | 8 | – | –
5 | Cc1c(N(C)CS(=O)(=O)[O-])c(=O)n(-c2ccccc2)n1C.[Na+] [Metamizole (sodium)] | 17 | 2 | – | –
6 | c1ccc2c(Cc3[nH]c4ccccc4c3Cc3c[nH]c4ccccc34)c[nH]c2c1 [2,3‐Bis(3‐indolylmethyl)indole] | 21 | 9 | – | –
7 | CC1CCC(C(C)C)C(O)C1 (racemic) [DL-Menthol] | 27 | 0 | – | –
8 | NCC[C@H](O)C(=O)N[C@@H]1C[C@H](N)[C@@H](O[C@H]2O[C@H](CN)[C@@H](O)[C@H](O)[C@H]2O)[C@H](O)[C@H]1O[C@H]1O[C@H](CO)[C@@H](O)[C@H](N)[C@H]1O.O=S(=O)(O)O.O=S(=O)(O)O [Amikacin (sulfate)] | 0 | 3 | – | –
9 | CC(=O)OC(C)(C)CCC(=O)[C@](C)(O)[C@H]1[C@H](O)C[C@@]2(C)[C@@H]3CC=C4[C@@H](C[C@H](O)C(=O)C4(C)C)[C@]3(C)C(=O)C[C@]12C [Dihydrocucurbitacin B] | 0 | 11 | – | –
10 | C[C@@H]1CC[C@@]2(OC1)O[C@H]1C[C@H]3[C@@H]4CC=C5C[C@@H](O[C@@H]6O[C@H](CO)[C@@H](O[C@@H]7O[C@H](CO)[C@@H](O)[C@H](O[C@@H]8O[C@H](CO)[C@@H](O)[C@H](O)[C@H]8O)[C@H]7O)[C@H](O)[C@H]6O[C@@H]6O[C@@H](C)[C@H](O)[C@@H](O)[C@H]6O)CC[C@]5(C)[C@H]4CC[C@]3(C)[C@H]1[C@@H]2C [Zingiberen Newsaponin] | 0 | 60 | – | –
11 | CC(C)=CCc1c(O)ccc(-c2coc3cc(O)cc(O)c3c2=O)c1O [Licoisoflavone A] | 0 | 10 | – | –
12 | CC(=O)O[C@@]12CO[C@@H]1C[C@H](O[C@@H]1OC[C@@H](O)[C@H](O)[C@H]1O)[C@@]1(C)C(=O)[C@H](O)C3=C(C)[C@@H](OC(=O)[C@H](O)[C@@H](NC(=O)c4ccccc4)c4ccccc4)C[C@@](O)([C@@H](OC(=O)c4ccccc4)[C@H]21)C3(C)C [10-Deacetyl-7-xylosyl paclitaxel] | 0 | 14 | – | –
13 | C=C[C@H]1[C@H](O[C@@H]2O[C@H](CO)[C@@H](O)[C@H](O)[C@H]2O)OC=C(C(=O)OC)[C@H]1CCOC(=O)c1cc(O)c(O)c(O)c1 [Cornuside] | 0 | 24 | – | –
14 | CO[C@]1(CC[C@@H](C)CO[C@@H]2O[C@H](CO)[C@@H](O)[C@H](O)[C@H]2O)O[C@H]2C[C@H]3[C@@H]4CC=C5C[C@@H](O[C@@H]6O[C@H](CO)[C@@H](O)[C@H](O[C@@H]7O[C@H](CO)[C@@H](O)[C@H](O)[C@H]7O)[C@H]6O[C@@H]6O[C@@H](C)[C@H](O)[C@@H](O)[C@H]6O)CC[C@]5(C)[C@H]4CC[C@]3(C)[C@H]2[C@@H]1C [Methyl protogracillin] | 0 | 15 | – | –
15 | O=c1cccc2n1C[C@H]1C[C@@H]2CN2CCCC[C@@H]12 [Thermopsine] | 0 | 2 | – | –
16 | NC(N)=O [Urea] | 10 | 13 | – | –
17 | Cc1c(O)c(O)cc2c1CC=C1[C@@]2(C)CC[C@@]2(C)[C@@H]3C[C@](C)(C(=O)O)CC[C@]3(C)CC[C@]12C [Triptohypol C] | 0 | 43 | – | –
18 | C[C@@H](CO[C@@H]1O[C@H](CO)[C@@H](O)[C@H](O)[C@H]1O)[C@@H]1CC[C@@]2(CC[C@]3(C)[C@H](CC[C@@H]4[C@@]5(C)CC[C@H](O[C@@H]6O[C@H](CO)[C@@H](O)[C@H](O)[C@H]6O[C@@H]6O[C@H](CO)[C@@H](O)[C@H](O)[C@H]6O)[C@@](C)(CO[C@@H]6O[C@H](CO)[C@@H](O)[C@H](O)[C@H]6O)[C@@H]5CC[C@]43C)[C@H]2O)CO1 [Hosenkoside K] | 10 | 2 | – | –
19 | CC(C)C[C@H](NP(=O)([O-])O[C@H]1O[C@H](C)[C@@H](O)[C@H](O)[C@@H]1O)C(=O)N[C@@H](Cc1c[nH]c2ccccc12)C(=O)[O-].[Na+].[Na+] [Phosphoramidon (Disodium)] | 19 | 7 | – | –
20 | CC1=C2C[C@H]3[C@@H](CC(=O)[C@H]4C[C@@H](O)CC[C@@]43C)[C@@H]2CC[C@]12O[C@@H]1C[C@H](C)CN[C@H]1[C@H]2C [Peimisine] | 0 | 0 | – | –

Row | Compound | Percentage of motility inhibition 0 h [1] [%] | Percentage of motility inhibition 24 h [2] [%] | Percentage of motility inhibition 0 h (110 µM) [%] | Percentage of motility inhibition 24 h (110 µM) [%]
21 | Kukoamine B | 8 | 0 | – | –
22 | C[C@]1(C(=O)O)CC[C@]2(C)CC[C@]3(C)C(=CC(=O)[C@@H]4[C@@]5(C)CC[C@H](O[C@@H]6O[C@H](C(=O)O)[C@@H](O)[C@H](O)[C@H]6O[C@@H]6O[C@H](C(=O)O)[C@@H](O)[C@H](O)[C@H]6O)[C@](C)(CO)[C@@H]5CC[C@]43C)[C@@H]2C1 [Licoricesaponin G2] | 2 | 10 | – | –
23 | CC1=C[C@H]2[C@@H](CC1)[C@H](C)CC[C@H]2[C@@H](C)C(=O)O [Dihydroartemisinic acid] | 0 | 15 | – | –
24 | CN1CCN(c2ccc(N3C[C@H](CO)OC3=O)cc2F)C=N1 [Delpazolid] | 2 | 3 | – | –
25 | CNc1nc2nc[nH]c2c(=O)[nH]1 [N2‐Methylguanine] | – | – | 14 | 43
26 | Protopine | 0 | 0 | – | –
27 | CO/N=C(\C(=O)N[C@@H]1C(=O)N2C(C(=O)[O-])=C(C[n+]3cccc4c3CCC4)CS[C@H]12)c1csc(N)n1.O=S(=O)(O)O [Cefpirome (sulfate)] | 13 | 0 | – | –
28 | C[C@@H]1O[C@@H](O[C@H]2[C@H](O[C@H]3CC[C@@]4(C)[C@@H](CC[C@]5(C)[C@@H]4CC=C4[C@@H]6CC(C)(C)CC[C@]6(C(=O)O[C@@H]6O[C@H](CO[C@@H]7O[C@H](CO)[C@@H](O)[C@H](O)[C@H]7O)[C@@H](O)[C@H](O)[C@H]6O)CC[C@]45C)[C@]3(C)CO)OC[C@H](O)[C@@H]2O)[C@H](O)[C@H](O[C@@H]2O[C@H](CO)[C@@H](O)[C@H](O)[C@H]2O)[C@H]1O [Macranthoidin A] | 1 | 1 | – | –
29 | COc1cc2c(cc1O)CC[n+]1cc3c4c(ccc3cc1-2)OCO4 [Groenlandicine] | 0 | 0 | – | –
30 | C[C@H](CO[C@@H]1O[C@H](CO)[C@@H](O)[C@H](O)[C@H]1O)[C@H]1CC[C@@]2(CC[C@]3(C)[C@H](CC[C@@H]4[C@@]5(C)CC[C@H](O[C@@H]6O[C@H](CO)[C@@H](O)[C@H](O)[C@H]6O[C@@H]6OC[C@@H](O)[C@H](O)[C@H]6O)[C@@](C)(CO)[C@@H]5CC[C@]43C)[C@H]2O)CO1 [Hosenkoside F] | 12 | 0 | – | –
31 | C/C=C1/CN2CCc3c([nH]c4ccccc34)[C@@H]2C[C@@H]1/C(=C/OC)C(=O)OC [Geissoschizine methyl ether] | 0 | 19 | – | –
32 | O=c1cc(-c2ccc(O)c(O)c2)oc2cc(O)cc(O[C@@H]3O[C@H](CO)[C@@H](O)[C@H](O)[C@H]3O)c12 [Luteolin 5‐O‐glucoside] | 8 | 0 | – | –
33 | CC1=CCC2CC1C2(C)C (stereo not drawn) [(-)-α-Pinene] | 0 | 6 | – | –
34 | C[C@@H]1O[C@@H](O[C@H]2C[C@@H](O)[C@]3(CO)[C@H]4[C@H](O)C[C@]5(C)[C@@H](C6=CC(=O)OC6)CC[C@]5(O)[C@@H]4CC[C@]3(O)C2)[C@H](O)[C@H](O)[C@H]1O.O.O.O.O.O.O.O.O [Ouabain (Octahydrate)] | 0 | 2 | – | –
35 | Cc1c(C)c2c(c(C)c1O)CCC(C)(CCCC(C)CCCC(C)CCCC(C)C)O2 (racemic) [DL-alpha-Tocopherol] | 5 | 9 | – | –
36 | Cc1ncccc1O [3‐Hydroxy‐2‐methylpyridine] | 15 | 0 | – | –
37 | Cl.O=C(O)c1cn(-c2ccc(F)cc2)c2cc(N3CCNCC3)c(F)cc2c1=O [Sarafloxacin (hydrochloride)] | 32 | 3 | – | –
38 | COc1ccc2c(c1OC)O[C@H]1c3ccc(O[C@@H]4O[C@H](CO)[C@@H](O)[C@H](O)[C@H]4O)cc3OC[C@@H]21 [Methylnissolin‐3‐O‐glucoside] | 8 | 7 | – | –
39 | Schaftoside | 0 | 3 | – | –
